Structures can show the parent of a compound that is named as a salt.
Columns and labels:
[1] = test system: Trypanosoma brucei rhodesiense; assay: Antitrypanosomal activity against blood stream form of Trypanosoma brucei rhodesiense IL-1501 assessed as growth inhibition incubated for 69 hrs by alamar blue staining based microplate fluorescence scanner analysis; assay type: functional, organism-based; conditions: IL-1501, 69 h
HeLa = assay: Antiproliferative activity against human HeLa cells assessed as inhibition of cell growth incubated for 72 hrs by MTT assay; assay type: functional, cell-based

Row | IC50 [1] | IC50 (HeLa) | SMILES
1 | 3.4 µM | > 30 µM | CC(=O)O[C@H]1C[C@](C)(O)C(=O)/C=C(\O)[C@](C)(O)CCC/C(C)=C/C=C\1C(C)C
2 | 10 µM | > 30 µM | C/C1=C\C=C(\C(C)C)[C@@H](O)C[C@](C)(O)C(=O)CC/C(C)=C/CC1
3 |  | 0.5 µM | COc1cccc2c1C(=O)c1c(O)c3c(c(O)c1C2=O)C[C@@](O)(C(=O)CO)C[C@@H]3O[C@H]1C[C@H](N)[C@H](O)[C@H](C)O1 [DOXORUBICIN HYDROCHLORIDE]
